Patent US20120165340A1, “PTEN PHOSPHORYLATION-DRIVEN RESISTANCE TO CANCER TREATMENT AND ALTERED PATIENT PROGNOSIS” (Ludwing Institute for Cancer Research Ltd., priority 2009, published 2012)
Non-standard residues stand in square brackets, D forms with d. No end group written: not given here. pY = N[C@@H](Cc1ccc(OP(=O)(O)O)cc1)C(=O)O

Tests used:
Ink4a/Arf-/- astrocytes = assay: Drug sensitivity assay, cell viability by WST-1; format: cell-based, mouse; settings: 72 hours
Source text: Mouse Astrocytes. Ink4a/Arf^−/−1 and Pten^loxP/loxP 2 mice were obtained from the NCI mouse depository and intercrossed to generate described genotypes. Primary astrocytes were isolated from the neocortex of 4 day old pups, using standard astrocyte isolation culture conditions (Bachoo et al 2002). Conditional deletion of Pten^loxP/loxP was accomplished by infecting astrocyte cultures with adenovirus expressing Cre recombinase under the CMV promoter (Gene TransferVector Core, University of Iowa, Iowa City, Iowa). Effective Pten deletion was verified by western blot. EGFRvIII was expressed in these cells by retroviral infection as described previously (Bachoo et al 2002). (Reference: Bachoo, R. M. et al. Epidermal growth factor receptor and Ink4a/Arf: convergent mechanisms governing terminal differentiation and transformation along the neural stem cell to astrocyte axis. Cancer Cell 1, 269-77 (2002)).
Drug sensitivity assays. Cells were plated at 1000 cells/well in 96 well plates and allowed to adhere for four hours prior to addition of Erlotinib and/or Dasatinib or solvent (DMSO) control. Cells were maintained in 5% serum during drug treatments and cell viability was measured using WST-1 assay (Clontech) following 72 hours exposure to drug.
Statistical analysis. For quantitation and analysis of immunohistochemistry data, see above. For analysis of drug sensitivity data, 2-way ANOVA was performed using the KaleidaGraph program (Synergy Software).

[1] = in vivo; cited from earlier work
Lyn = Lyn (Homo sapiens, UniProt P07948); settings: cited from earlier work
Lyn, sequence (P07948 whole entry, species assumed): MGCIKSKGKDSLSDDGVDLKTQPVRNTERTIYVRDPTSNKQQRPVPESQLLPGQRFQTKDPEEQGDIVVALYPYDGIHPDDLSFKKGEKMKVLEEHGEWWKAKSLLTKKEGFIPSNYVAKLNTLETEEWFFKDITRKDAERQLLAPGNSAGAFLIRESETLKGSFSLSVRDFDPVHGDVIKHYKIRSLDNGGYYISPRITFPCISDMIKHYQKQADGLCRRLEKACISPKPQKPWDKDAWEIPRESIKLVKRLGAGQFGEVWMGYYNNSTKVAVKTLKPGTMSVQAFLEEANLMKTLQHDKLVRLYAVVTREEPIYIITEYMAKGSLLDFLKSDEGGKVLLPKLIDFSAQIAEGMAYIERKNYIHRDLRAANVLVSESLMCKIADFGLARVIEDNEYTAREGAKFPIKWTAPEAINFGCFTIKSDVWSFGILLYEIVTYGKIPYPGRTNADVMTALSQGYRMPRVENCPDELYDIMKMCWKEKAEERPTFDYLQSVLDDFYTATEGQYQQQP

[2] = test system: Ph+ leukemia cells which express wt and mutated BCR-ABL; settings: mouse, in vivo; cited from earlier work
anti-pY240 PTEN antibody = assay: Peptide competition of anti-pY240 immunostaining; format: binding; settings: tissue sections from human GBM with wild type PTEN
Source text: Immunohistochemistry: Tissue sections were cut from blocks of formalin-fixed paraffin tumor tissue from glioblastoma patients treated at UCLA with the EGFR kinase inhibitors (erlotinib or gefitinib), including a subset of patients previously described^2. Tumor specimens were obtained according to a protocol approved by the institutional review board of UCLA. Pre-treatment tumor tissue was examined for 19 patients; post-treatment tissue was examined from 8 patients, including 7 patients for whom pre- and post-treatment tissue was available. […]

GBM39 cells = assay: PTEN Y240 phosphorylation in GBM39 glioma cells, western blot; format: cell-based, human; settings: pervanadate 100 μM for 15 minutes
Protocol: Mice were sacrificed by CO2 inhalation followed by cervical dislocation, according to institutional guidelines. Subcutaneous tumors were removed and tumor tissue was minced into 0.1-0.5 mm^3 chunks in a 60 mm dish with 5 ml of freshly prepared, filter-sterilized digestion solution (12,500 units of Collagenase Type 2, 12,500 units of Collagenase Type 4, 20 mL DMEM (Serum Free), 20 uL of 1 mg/mL DNAase I). Tissue was placed into a sterile 15 ml specimen cup with an additional 10 ml of digestion solution and shaken (150 rpm) at 37 C for 3 hours before filtration through a 70/40 um filter. After centrifugation at 1000 rpm for 3 minutes, the supernatant was discarded. The pellet was resuspended in 1 ml of ACK buffer (150 mM NH4Cl, 10 mM KHCO3, 0.1 mM Na2EDTA, adjusted to pH 7.2-7.4 with 1N HCl) and incubated at room temperature for 3 minutes to lyse red blood cells. Cells were pelleted by centrifugation at 1000 rpm for 3 minutes and resuspended in culture medium (DMEM containing 10% fetal bovine serum plus L-glutamine and penicillin/streptomycin). Cell viability was determined by trypan blue exclusion and cells were plated at a density of approx 10^6 cells per 100 mm culture dish. Cells were maintained under standard cell culture conditions (37 C, 5% CO2 in a humidified incubator) and all experiments were conducted in cells prior to p4. […]

Molecule: C#Cc1cccc(Nc2ncnc3cc(OCCOC)c(OCCOC)cc23)c1 [Erlotinib]
- sensitivity to Erlotinib (cell viability) (Ink4a/Arf-/- astrocytes; EGFRvIII PTEN-null astrocytes reconstituted with PTEN Y240F mutant): significantly sensitized these cells to sub-micromolar doses
- sensitivity to Erlotinib (cell viability) (Ink4a/Arf-/- astrocytes; EGFRvIII astrocytes reconstituted with WT PTEN): resistant to clinically achievable doses
- sensitivity to Erlotinib (cell viability) (Ink4a/Arf-/- astrocytes; PTEN-null astrocytes expressing EGFRvIII): resistant to clinically achievable doses
- sensitivity to Erlotinib (cell viability) (Ink4a/Arf-/- astrocytes; astrocytes expressing WT PTEN, with versus without EGFRvIII): sensitizes astrocytes expressing WT PTEN to Erlotinib

Molecule: Cc1ccc(NC(=O)c2ccc(CN3CC[C@H](N(C)C)C3)c(C(F)(F)F)c2)cc1Nc1nccc(-c2cncnc2)n1 [INNO-406]
- concentrations in the CNS relative to those in plasma [1]: about 10%
- Lyn inhibition versus phosphorylation of Src, Blk or Yes (Lyn): inhibits Lyn without affecting the phosphorylation of Src-family kinases Src, Blk or Yes
- growth of Ph+ leukemia cells in murine CNS [2]: does inhibit growth

Molecule: FMY[243.03]FEFPQPLPVC[160.03]GDIK: Phosphorylated PTEN Y240 peptide that competes away antibody staining (FM[pY]FEFPQPLPVCGDIK; not fully specified (residue 13); printed as FMY[243.03]FEFPQPLPVC[160.03]GDIK; also: modified cysteine C13 (C[160.03]))
- competition of antibody staining in immunostaining (anti-pY240 PTEN antibody): competes away antibody staining

Molecule: pervanadate
- induction of Y240 phosphorylation (GBM39 cells): substantial increase in Y240 phosphorylation
